From patent US20220389003A1, “4-SUBSTITUTED INDOLE AND INDAZOLE SULFONAMIDO DERIVATIVES AS PARG INHIBITORS” (IDEAYA BIOSCIENCES, INC., priority 2019, published 2022) come the findings set out here.

Read-outs that look alike come from different tables or passages of the source.

Assay [1] concerns the target T1, PARG (Homo sapiens, UniProt Q86W56). Put plainly: Inhibition of PARG enzymatic assay (TR-FRET enzymatic IC50 assay). Set-up: purchased Peak Proteins. As to conditions: hPARG 250 pM, biotinylated-PARylated PARP substrate 30 nM. It is filed as biochemical. As to the method:
PARG enzyme was incubated with compound or vehicle (DMSO) and the biotinylated-PARylated PARP substrate in a microtiter plate. After adding detection antibody and streptavidin-europium, and then incubating, the plate was read for fluorescence intensity. The low control (DMSO) with low fluorescence intensity represents no inhibition of enzymatic reaction while the high control (no enzyme) with high fluorescence intensity represents full inhibition of enzymatic reaction.
• PARG • hPARG: 250 pM, His-tagged, Peak Proteins, 0.96 mg/mL (8.58 μM) • Substrate: 30 nM • Reaction time: 70 minutes • Substrate: hPARP1, His- and TEV-tagged, Peak Proteins, 14 μM • Detection Antibody: anti-His monoclonal antibody-ULight, Perkin Elmer catalog #TRF0105-M • Streptavidin-Europium: Perkin Elmer catalog #AD0062 • Assay buffer: 50 mM Tris-HCl pH 7.4, 50 mM KCl, 3 mM EDTA, 0.4 mM EGTA, 1 mM DTT, 0.01% Tween 20, 0.01% BSA • Temperature: 23° C. • Total volume: 20 μL
• 0% inhibition control: DMSO • 100% inhibition control: No enzyme
• 1. Transfer 5 μL of 3× final concentration of test compounds or DMSO to the appropriate wells of a microtiter plate. • 2. Centrifuge the plate at 1000 rpm for 1 minute. • 3. Transfer 5 μL of 3× final concentration of enzyme in assay buffer or assay buffer alone to the appropriate wells. • 4. Centrifuge the plate at 1000 rpm for 1 minute. • 5. Incubate the plate at room temperature for 1 hour. • 6. Transfer 5 μL of 3× substrate in assay buffer to all the test wells. • 7. Centrifuge the plate at 1000 rpm for 1 minute. • 8. Incubate the plate at room temperature for 10 minutes. • 9. Transfer 5 μL of 3× mixture of detection antibody and streptavidin-europium in assay buffer to all the test wells. • 10. Centrifuge the plate at 1000 rpm for 1 minute. • 11. Incubate the plate at room temperature for 1 hour. • 12. Read the plate on a plate reader (e.g., Infinite M1000).
(In general: In TR-FRET formats the signal depends on donor and acceptor labels being close together.)

The target in assay [2] is T1, PARG. Put plainly: Inhibition of PARG cellular assay (PAR foci in HeLa cells after MMS). Particulars: compound 1 h then MMS 1 h. Set-up: endogenous in cells; host or cells: HeLa. It is filed as cell-based. How it is done: The ability of the compounds disclosed herein to inhibit PARG was determined as described below. Briefly, after treating HeLa cells with the compounds of the disclosure for 1 h, followed by treatment with DNA alkylating agent methylmethanesulfonate (MMS) for an additional 1 h, the cells were fixed in 3.7% formaldehyde. The cells were permeabilized in 0.5% Triton-X100, blocked in 5% goat serum, and incubated with mouse monoclonal antibody against poly (ADP) ribose (PAR) polymer overnight at 4° C. The cells were washed and incubated with an Alexafluor 488-linked secondary antibody together with a nuclear stain (Hoechst 33342) for an hour at room temperature. After washing, images of the cells were captured and analyzed on a high content imaging microscope and software. Two measurement of PAR chain were quantified with the mean intensity over background of the nuclear foci (fluorescent signal at 488 nm range 0.3-2.0 μm foci) quantified as PAR foci (PAR Foci IC50). The cells with a PAR foci signal >1.3 was considered as positive (PAR % positive IC50), and the percentage positive cells are quantified.

Assay [3] has as its system HCC1806-XRCC1 KD (knock down) cells. Put plainly: Cellular viability assay (Cell Titer-Glo). It is filed as cell-based. As to conditions: HCC1806-shXRCC1 cells, 4 days of incubation, read-out: PARGi cell viability. As to the method: HCC1806-XRCC1 KD (knock down) cells were plated at 2000 cells/well in 96-well white plates with clear flat bottom. After 24 hours, the compounds of the disclosure were added starting at 30 μM for a 9-point dose response curve at 1:3 dilution. The compounds of the disclosure were added by Tecan digital dispenser excluding the outermost wells of the plate. All treatments were done in duplicates. After 4 days of incubation, 50 ul of Cell Titer-Glo (Promega) was added per well. After incubation with the reagent for 15 minutes, luminescence was read using a plate reader (TECAN). Average values of DMSO treated wells in a plate was calculated. All data points were normalized to that of the average DMSO value. The % of control for each sample compared to DMSO treated control samples. Curves are fit as % of control vs. log [compound concentration] using a 4 parameter inhibition model (Levenberg-Marquardt algorithm):
Fit=(A+((B−A)/(1+((C/x)^D))))

T1 sequence (Q86W56 whole entry): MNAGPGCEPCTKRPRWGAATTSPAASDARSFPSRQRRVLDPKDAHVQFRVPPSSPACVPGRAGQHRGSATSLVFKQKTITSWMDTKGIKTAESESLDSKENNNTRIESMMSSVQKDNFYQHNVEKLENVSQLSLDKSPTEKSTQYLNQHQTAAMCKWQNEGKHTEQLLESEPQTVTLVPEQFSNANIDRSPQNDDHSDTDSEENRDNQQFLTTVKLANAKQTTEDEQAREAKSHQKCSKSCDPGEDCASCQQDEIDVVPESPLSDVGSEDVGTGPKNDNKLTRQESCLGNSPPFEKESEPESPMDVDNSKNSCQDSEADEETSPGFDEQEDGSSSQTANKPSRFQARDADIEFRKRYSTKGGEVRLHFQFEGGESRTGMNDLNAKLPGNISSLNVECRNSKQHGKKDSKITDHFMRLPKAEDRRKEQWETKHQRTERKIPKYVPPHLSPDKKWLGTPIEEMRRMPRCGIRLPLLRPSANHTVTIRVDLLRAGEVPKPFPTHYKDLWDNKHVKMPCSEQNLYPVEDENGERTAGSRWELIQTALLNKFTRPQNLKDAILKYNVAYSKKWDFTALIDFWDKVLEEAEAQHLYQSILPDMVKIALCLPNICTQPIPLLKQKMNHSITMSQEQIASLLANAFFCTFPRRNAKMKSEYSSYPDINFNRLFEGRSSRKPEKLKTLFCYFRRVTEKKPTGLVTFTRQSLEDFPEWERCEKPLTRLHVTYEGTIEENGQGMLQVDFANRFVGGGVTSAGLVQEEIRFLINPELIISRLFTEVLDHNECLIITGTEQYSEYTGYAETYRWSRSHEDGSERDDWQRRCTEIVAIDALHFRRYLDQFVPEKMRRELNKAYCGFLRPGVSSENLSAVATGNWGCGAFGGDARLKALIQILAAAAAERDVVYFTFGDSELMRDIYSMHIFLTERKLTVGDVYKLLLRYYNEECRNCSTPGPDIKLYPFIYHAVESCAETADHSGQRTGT

`CN1CC2CN(c3cc(S(=O)(=O)NC4(C#N)CC4)cc4c3cnn4-c3nnc(C(F)F)s3)CCN2C1=O` (single isomer, unassigned) [Example 71, 1-[({4-(8-methyl-7-oxo-3,6,8-triazabicyclo[4.3.0]non-3-yl)-1-[5-(difluoromethyl)-(1,3,4-thiadiazol-2-yl)]-1H-indazol-6-yl}sulfonyl)amino]cyclopropane carbonitrile]: the values for the IC50 (against PARG [1]; at PARG [2]; in assay [3] (96 h)) were no more than 100 nM, 100 to 300 nM and 1000 to 10000 nM, respectively.
For `CN1CC2CN(c3cc(S(=O)(=O)NC4(C#N)CC4)cc4c3cnn4-c3nnc(C(F)F)s3)CCN2C1=O` (single isomer, unassigned) [Example 72, 1-[({4-(8-methyl-7-oxo-3,6,8-triazabicyclo[4.3.0]non-3-yl)-1-[5-(difluoromethyl)-(1,3,4-thiadiazol-2-yl)]-1H-indazol-6-yl}sulfonyl)amino]cyclopropane carbonitrile], the values for the IC50 (on PARG [1]; at PARG [2]; in assay [3]) were no more than 100 nM, 100 to 300 nM and 1000 to 10000 nM, respectively.
In the case of `N#CC1(NS(=O)(=O)c2cc(-c3ccccc3)c3cnn(-c4nnc(C(F)F)s4)c3c2)CC1` [Example 1, 1-[({1-[5-(difluoromethyl)(1,3,4-thiadiazol-2-yl)]-4-phenyl-1H-indazol-6-yl}sulfonyl)amino]cyclopropanecarbonitrile], the IC50 at PARG [1] is 1000 to 10000 nM; against PARG [2] it was 1000 to 10000 nM; in assay [3] (96 h), 20000 to 30000 nM.
On to `Cn1cc(-c2cc(S(=O)(=O)NC3(C#N)CC3)cc3c2cnn3-c2nnc(C(F)F)s2)ccc1=O` [Example 5, N-(1-cyanocyclopropyl)-1-(5-(difluoromethyl)-1,3,4-thiadiazol-2-yl)-4-(1-methyl-6-oxo-1,6-dihydropyridin-3-yl)-1H-indazole-6-sulfonamide], for which the IC50 against PARG [1] is no more than 100 nM; at PARG [2], 300 to 1000 nM; in assay [3] (96 h), 20000 to 30000 nM.
Turning to `N#CC1(NS(=O)(=O)c2cc(C3CC3)c3cnn(-c4nnc(C(F)F)s4)c3c2)CC1` [Example 6, 1-[({1-[5-(difluoromethyl)(1,3,4-thiadiazol-2-yl)]-4-cyclopropyl-1H-indazol-6-yl}sulfonyl)amino]cyclopropanecarbonitrile], the IC50 at PARG [1] is 1000 to 10000 nM; against PARG [2], 1000 to 10000 nM; in assay [3] (96 h) it was 20000 to 30000 nM.
Take `N#CC1(NS(=O)(=O)c2cc(C3=CCC4(CC3)COC4)c3cnn(-c4nnc(C(F)F)s4)c3c2)CC1` [Example 7, 1-[({1-[5-(difluoromethyl)(1,3,4-thiadiazol-2-yl)]-4-(2-oxaspiro[3.5]non-6-en-7-yl)-1H-indazol-6-yl}sulfonyl)amino]cyclopropanecarbonitrile]: the IC50 fell in the range of 300 to 1000 nM on PARG [1], 300 to 1000 nM at PARG [2] and 1000 to 10000 nM in assay [3] (96 h).
For the compound `N#CC1(NS(=O)(=O)c2cc(C3CCC4(CC3)COC4)c3cnn(-c4nnc(C(F)F)s4)c3c2)CC1` [Example 8, 1-[({1-[5-(difluoromethyl)(1,3,4-thiadiazol-2-yl)]-4-(2-oxaspiro[3.5]non-7-yl)-1H-indazol-6-yl}sulfonyl)amino]cyclopropanecarbonitrile], the IC50 was 100 to 300 nM against PARG [1], no more than 100 nM at PARG [2] and 1000 to 10000 nM in assay [3] (96 h).
`N#CC1(NS(=O)(=O)c2cc(-c3ccccn3)c3cnn(-c4nnc(C(F)F)s4)c3c2)CC1` [Example 14, 1-[({1-[5-(difluoromethyl)(1,3,4-thiadiazol-2-yl)]-4-(2-pyridyl)-1H-indazol-6-yl}sulfonyl)amino]cyclopropanecarbonitrile]: the IC50 at PARG [1] was in the range of 300 to 1000 nM; against PARG [2] it was 1000 to 10000 nM; in assay [3] (96 h), 10000 to 20000 nM.
Regarding `N#CC1(NS(=O)(=O)c2cc(-c3ccncn3)c3cnn(-c4nnc(C(F)F)s4)c3c2)CC1` [Example 15, 1-[({1-[5-(difluoromethyl)(1,3,4-thiadiazol-2-yl)]-4-pyrimidin-4-yl-1H-indazol-6-yl}sulfonyl)amino]cyclopropanecarbonitrile], the IC50 against PARG [1] was no more than 100 nM; against PARG [2] it was 300 to 1000 nM; in assay [3] (96 h) it was 1000 to 10000 nM.
Taken in the same sequence, the figures for `COc1nccc(-c2cc(S(=O)(=O)NC3(C#N)CC3)cc3c2cnn3-c2nnc(C(F)F)s2)n1` [Example 21, 1-[({1-[5-(difluoromethyl)(1,3,4-thiadiazol-2-yl)]-4-(2-methoxypyrimidin-4-yl)-1H-indazol-6-yl}sulfonyl)amino]cyclopropanecarbonitrile] were 100 to 300 nM, 300 to 1000 nM and 1000 to 10000 nM.
Take `CC(C)C(=O)N1[C@@H]2CC[C@H]1CN(c1cc(S(=O)(=O)NC3(C#N)CC3)cc3c1cnn3-c1nnc(C(F)F)s1)C2` [Example 37, 1-[({4-[(1S,5R)-8-(2-methylpropanoyl)-3,8-diazabicyclo[3.2.1]oct-3-yl]-1-[5-(difluoromethyl)(1,3,4-thiadiazol-2-yl)]-1H-indazol-6-yl}sulfonyl)amino]cyclopropane carbonitrile]: the IC50 on PARG [2] was no more than 100 nM; in assay [3] (96 h), 1000 to 10000 nM.
The corresponding values for `N#CC1(NS(=O)(=O)c2cc(N3CCN(C=O)CC3)c3cnn(-c4nnc(C(F)F)s4)c3c2)CC1` [Example 49, 1-[({1-[5-(difluoromethyl)(1,3,4-thiadiazol-2-yl)]-4-(4-formylpiperazinyl)-1H-indazol-6-yl}sulfonyl)amino]cyclopropanecarbonitrile] are 300 to 1000 nM and 1000 to 10000 nM.
As to `CN(C)CCN(C)C(=O)N1CCN(c2cc(S(=O)(=O)NC3(C#N)CC3)cc3c2cnn3-c2nnc(C(F)F)s2)CC1` [Example 76, [4-(1-[5-(difluoromethyl)(1,3,4-thiadiazol-2-yl)]-6-{[(cyanocyclopropyl)amino]sulfonyl}(1H-indazol-4-yl))piperazinyl]-N-[2-(dimethylamino)ethyl]-N-methylcarboxamide], the IC50 was no more than 100 nM on PARG [1] and 1000 to 10000 nM in assay [3] (96 h).
Turning to `N#CC1(NS(=O)(=O)c2cc(N3CCN(C(=O)C4CCC4)CC3)c3cnn(-c4nnc(C(F)F)s4)c3c2)CC1` [Example 81, 1-[({1-[5-(difluoromethyl)(1,3,4-thiadiazol-2-yl)]-4-[4-(cyclobutylcarbonyl)piperazinyl]-1H-indazol-6-yl}sulfonyl)amino]cyclopropanecarbonitrile], the values for the IC50 (on PARG [2]; in assay [3] (96 h)) were no more than 100 nM and less than 1000 nM, respectively.
For the compound `CN1CC2(CCN(c3cc(S(=O)(=O)NC4(C#N)CC4)cc4c3cnn4-c3nnc(C(F)F)s3)CC2)C1` [Example 92, 1-[({1-[5-(difluoromethyl)(1,3,4-thiadiazol-2-yl)]-4-(2-methyl-2,7-diazaspiro-[3.5]non-7-yl)-1H-indazol-6-yl}sulfonyl)amino]cyclopropanecarbonitrile], the IC50 against PARG [1] is 300 to 1000 nM; in assay [3] (96 h) it was 10000 to 20000 nM.
Regarding “[4-(1-[5-(difluoromethyl)(1,3,4-thiadiazol-2-yl)]-6-{[(cyanocyclopropyl)amino]sulfonyl}(1H-indazol-4-yl))(1,4-diazaperhydroepinyl)]-N-methylcarboxamide [Example 31]”, the IC50 on PARG [1] fell in the range of 300 to 1000 nM; in assay [3], 10000 to 20000 nM.
